Laboratory results reported in article PMC7076352 (Pharmaceutics, 2020).
Where two headings read alike, the source gives them in different places.

Legend:
CYP2E1 [1] = molecular target: T1, CYP2E1 (Rattus norvegicus, UniProt P05182); conditions: Sprague-Dawley, rat, 15 min, pH 7.4
CYP2E1 [2] = molecular target: T1, CYP2E1; conditions: IC50 CYP2E1, single components; RLM 0.2 mg/mL, 15 min, triplicate, mean ± SD
in vivo = experiment: in vivo; design: species or system Sprague-Dawley (SD) rats; conditions: Sprague-Dawley, plasma, rat
Experimental: At each time, 0.5 mL of blood was collected in the heparin sodium tubes. Plasma was separated by centrifugation at 4000 rpm for 10 min and stored below −80 °C until bioanalysis. Oasis PRiME HLB SPE cartridges (1 cc/30 mg, Waters, Milford, MA, USA) were used to process the plasma samples (Supplementary Materials).
The generic layout of instrumentation setup of the LVDI-UHPLC-MS/MS was conducted on a Shimadzu UHPLC system consisting of two LC-20ADXR pumps, a DGU-20A3R degasser, and a CBM-20A controller (Kyoto, Japan) with a SCIEX 4500 QTRAP mass spectrometer mounted with an electron spray ionization (ESI) interface as well as an electronic 6-port/2-channel valve (Foster City, CA, USA). Analyst software package (version 1.6.2, SCIEX) was implemented to control and synchronize the entire system, and also for data acquisition and processing. A single analytical run was fragmented into two phases, namely, loading and elution phases, by switching the electronic valve (Figure 2). At the loading phase, the valve was maintained at A-channel. The specimen aliquot of large volume delivered from the auto-sampler was captured onto a guard column. Meanwhile, the pumps were responsible for delivering the mobile phase at a high flow rate, aiming to dilute the sample solvent, thus facilitating the candidate constituents to concentrate on the pre-guard column. Then, the valve was automatically switched to the B-channel to trigger the elution phase. The trapped components were flushed from the pre-guard column into an analytical column, and underwent multiple reaction monitoring (MRM) analysis on the optimized LC gradients. The detailed information of LVDI-UHPLC-MS/MS analysis for pharmacokinetic and cocktail studies is shown in the Supplementary Materials section.

CYP2B6 = experiment: In vitro cocktail CYP450 activity assay in rat liver microsomes, CYP2B6 (bupropion probe)
Experimental: (§1) (OHBUP-[D6]) and 5 nM 4′-hydroxydiclofenac-[^13C6] (OHDIC-[^13C6]) as internal standards (ISs). […]
(§2) standard addition experiments. Each group included four concentration levels. For the PK […]
(§3) The probe compounds, viz. […]
(§4) chosen after incubating all the recruited substrates. In order to assure the linear relationship […]
(§5) The incubation system was also optimized in terms of substrate concentrations. The substrates concentrations of […]

CYP3A4 [3] = experiment: in vitro; conditions: for IC50: Sprague-Dawley, rat, microsomes
Experimental: as §1, §2, §3, §4, §5

CYP2D6 = experiment: in vitro; conditions: Sprague-Dawley, rat
Experimental: as §1, §2, §3, §4, §5

CYP2C9 = experiment: In vitro cocktail CYP450 activity assay in rat liver microsomes, CYP2C9 (tolbutamide probe)
Experimental: as §1, §2, §3, §4, §5

CYP2C19 = experiment: In vitro cocktail CYP450 activity assay in rat liver microsomes, CYP2C19 (omeprazole probe)
Experimental: as §1, §2, §3, §4, §5

CYP1A2 = molecular target: T2, CYP1A2 (Rattus norvegicus, UniProt P04799); experiment: In vitro cocktail CYP450 activity assay in rat liver microsomes, CYP1A2 (phenacetin probe)
T2 sequence (P04799 1-513): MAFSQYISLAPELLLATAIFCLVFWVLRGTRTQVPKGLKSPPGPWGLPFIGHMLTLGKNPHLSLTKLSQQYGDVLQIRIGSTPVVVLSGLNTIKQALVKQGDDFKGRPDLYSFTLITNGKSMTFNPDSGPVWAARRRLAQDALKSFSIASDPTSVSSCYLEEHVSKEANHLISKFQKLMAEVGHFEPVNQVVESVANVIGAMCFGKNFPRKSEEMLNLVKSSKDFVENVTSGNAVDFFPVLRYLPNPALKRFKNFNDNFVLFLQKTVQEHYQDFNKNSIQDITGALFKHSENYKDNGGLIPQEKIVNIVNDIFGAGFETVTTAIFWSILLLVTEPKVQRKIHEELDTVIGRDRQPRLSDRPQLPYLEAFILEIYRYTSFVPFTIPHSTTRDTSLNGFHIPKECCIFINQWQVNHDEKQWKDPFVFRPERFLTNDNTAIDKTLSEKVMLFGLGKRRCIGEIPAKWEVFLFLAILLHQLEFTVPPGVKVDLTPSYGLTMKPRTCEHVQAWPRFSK
Experimental: as §1, §2, §3, §4, §5

CYP3A4 [4] = conditions: read-out: Reported IC50; positive inhibitor of CYP3A4, literature ref 9; cited from earlier work
[5] = at the Cmax level in rat plasma, calculated from the dose–response curve

T1 sequence (P05182 whole entry): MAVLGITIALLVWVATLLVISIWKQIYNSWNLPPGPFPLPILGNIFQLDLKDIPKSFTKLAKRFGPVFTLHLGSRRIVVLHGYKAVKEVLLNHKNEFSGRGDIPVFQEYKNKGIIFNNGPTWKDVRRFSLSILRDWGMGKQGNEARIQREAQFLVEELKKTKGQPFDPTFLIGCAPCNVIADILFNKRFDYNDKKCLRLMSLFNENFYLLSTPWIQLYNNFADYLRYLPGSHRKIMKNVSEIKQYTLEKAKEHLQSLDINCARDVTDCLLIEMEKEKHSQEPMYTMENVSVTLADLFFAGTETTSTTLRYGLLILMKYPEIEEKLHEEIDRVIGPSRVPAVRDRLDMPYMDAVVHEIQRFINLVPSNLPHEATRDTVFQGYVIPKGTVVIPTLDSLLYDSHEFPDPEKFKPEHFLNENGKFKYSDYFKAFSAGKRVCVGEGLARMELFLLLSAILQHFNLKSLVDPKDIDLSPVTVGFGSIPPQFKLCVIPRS

CC(C)=CCC[C@](C)(O[C@@H]1O[C@H](CO)[C@@H](O)[C@H](O)[C@H]1O)[C@H]1CC[C@]2(C)[C@@H]1[C@H](O)C[C@@H]1[C@@]3(C)CC[C@H](O)C(C)(C)[C@@H]3[C@@H](O[C@@H]3O[C@H](CO)[C@@H](O)[C@H](O)[C@H]3O)C[C@]12C [GRg1, ginsenoside Rg1]
Response (% control) CYP2E1 (CYP2E1 [1]): 99.57 % control
IC50 (CYP2E1 [2]): 34.1 ± 4.76 µM
concentration at […] (in vivo; 0.083 h after oral CNP): 0.38 ± 0.15 ng/mL
concentration at 0.25 h (in vivo; 0.25 h after oral CNP): 0.48 ± 0.07 ng/mL
concentration at 0.5 h (in vivo; 0.5 h after oral CNP): 0.53 ± 0.37 ng/mL
concentration at 1 h (in vivo; 1 h after oral CNP): 0.4 ± 0.23 ng/mL
concentration at 1.5 h (in vivo; 1.5 h after oral CNP): 0.43 ± 0.32 ng/mL
concentration at 2 h (in vivo; 2 h after oral CNP): 0.4 ± 0.14 ng/mL
concentration at 3 h (in vivo; 3 h after oral CNP): 0.53 ± 0.4 ng/mL
concentration at 4 h (in vivo; 4 h after oral CNP): 0.47 ± 0.13 ng/mL
concentration at 6 h (in vivo; 6 h after oral CNP): 0.37 ± 0.17 ng/mL
concentration at 8 h (in vivo; 8 h after oral CNP): 0.65 ± 0.2 ng/mL
concentration at 12 h (in vivo; 12 h after oral CNP): 0.6 ± 0.36 ng/mL
concentration at 24 h (in vivo; 24 h after oral CNP): 0.34 ± 0.12 ng/mL
concentration at 48 h (in vivo; 48 h after oral CNP): 0.13 ± 0.04 ng/mL
AUC(0-inf) (in vivo; po, 60 mg/kg): 16.7 ± 3.93 ng·h/mL
AUC(0-t) (in vivo; po, 60 mg/kg): 14 ± 5.03 ng·h/mL
Cmax (in vivo; po, 60 mg/kg): 0.78 ± 0.13 ng/mL
Tmax (in vivo; po, 60 mg/kg): 4.71 ± 3.71 h
half-life (in vivo; po, 60 mg/kg): 11.7 ± 2.09 h
concentration at 0.25 h (in vivo; po, 60 mg·kg^−1): 0.56 ± 0.15 ng/mL
concentration at 0.5 h (in vivo; po, 60 mg·kg^−1): 0.37 ± 0.12 ng/mL
concentration at 1 h (in vivo; po, 60 mg·kg^−1): 0.44 ± 0.19 ng/mL
concentration at 1.5 h (in vivo; po, 60 mg·kg^−1): 0.33 ± 0.21 ng/mL
concentration at 2 h (in vivo; po, 60 mg·kg^−1): 0.21 ± 0.05 ng/mL
concentration at 3 h (in vivo; po, 60 mg·kg^−1): 0.49 ± 0.29 ng/mL
concentration at 4 h (in vivo; po, 60 mg·kg^−1): 0.34 ± 0.32 ng/mL
concentration at 6 h (in vivo; po, 60 mg·kg^−1): 0.37 ± 0.13 ng/mL
concentration at 8 h (in vivo; po, 60 mg·kg^−1): 0.63 ± 0.14 ng/mL
concentration at 12 h (in vivo; po, 60 mg·kg^−1): 0.59 ± 0.27 ng/mL
concentration at 24 h (in vivo; po, 60 mg·kg^−1): 0.22 ± 0.13 ng/mL
concentration at 48 h (in vivo; po, 60 mg·kg^−1): 0.09 ± 0.01 ng/mL
IC50 at 15 min (CYP2B6; Sprague-Dawley, rat, pooled rat liver microsomes, pH 7.4, probe bupropion (90 µM, in seven-probe cocktail), IC50 CYP2B6, single components, RLM 0.2 mg/mL, 15 min, triplicate, mean ± SD): 11 ± 0.87 µM
Response (% control) CYP2B6 (CYP2B6; [5]): 98.23 % control
IC50 (CYP3A4 [3]; pH 7.4, IC50 CYP3A4, single components, RLM 0.2 mg/mL, 15 min, triplicate, mean ± SD): 39.2 ± 4.57 µM
Response (% control) CYP3A4 (CYP3A4 [3]; [5]): 97.76 % control
Response (% control) CYP2D6 (CYP2D6; 15 min, pH 7.4): 99.88 % control
IC50 at 15 min (CYP2D6; microsomes, pH 7.4, IC50 CYP2D6): 55.7 ± 6.08 µM
IC50 at 15 min (CYP2C9; Sprague-Dawley, rat, pooled rat liver microsomes, pH 7.4, probe tolbutamide (18 µM, in seven-probe cocktail), IC50 CYP2C9, single components, RLM 0.2 mg/mL, 15 min, triplicate, mean ± SD): 36.5 ± 1.32 µM
Response (% control) CYP2C9 (CYP2C9; [5]): 96.27 % control
IC50 at 15 min (CYP2C19; Sprague-Dawley, rat, pooled rat liver microsomes, pH 7.4, probe omeprazole (1.07 µM, in seven-probe cocktail), IC50 CYP2C19, single components, RLM 0.2 mg/mL, 15 min, triplicate, mean ± SD): 78.1 ± 5.25 µM
Response (% control) CYP2C19 (CYP2C19; [5]): 99.83 % control
IC50 (CYP1A2; IC50 CYP1A2, single components, RLM 0.2 mg/mL, 15 min, triplicate, mean ± SD): 13.1 ± 8.24 µM
Response (% control) CYP1A2 (CYP1A2; [5]): 98.46 % control
